In ChEMBL document CHEMBL1208667, “Permanent positive charge strongly influences DNA/RNA binding and antiproliferative activity of urea-phenanthridinium conjugates” (Eur J Med Chem, 2010):
Active and inactive are the calls of the source. No cut-off for these calls is given here.

The compounds below were run on Nucleic Acid (assay: Binding affinity to poly A-poly U RNA assessed as change in melting temperature at compound to DNA molar ratio of 0.2 at pH 7 by thermal denaturation assay). Conditions: not given.
Format: nucleic-acid assay

ΔTm | SMILES
0 °C | Cc1c2cc(NC(=O)NCCCCCCNC(=O)Nc3ccc4c(c3)c(C)[n+](C)c3ccccc43)ccc2c2ccccc2[n+]1C.O=S(=O)([O-])O.O=S(=O)([O-])O

These compounds were tested on Calf thymus DNA (assay: Binding affinity to calf thymus DNA at compound to DNA molar ratio of 0.1 to 0.5 at pH 5 by circular dichroism). Conditions: Bos taurus.
Format: nucleic-acid assay

Activity | SMILES
Active | Cc1c2cc(NC(=O)NCCCCCCNC(=O)Nc3ccc4c(c3)c(C)[n+](C)c3ccccc43)ccc2c2ccccc2[n+]1C.O=S(=O)([O-])O.O=S(=O)([O-])O

These compounds were tested on Nucleic Acid (assay: Binding affinity to poly A-poly U RNA at compound to DNA molar ratio of 0.1 to 0.5 at pH 5 by circular dichroism). Conditions: not given.
Format: nucleic-acid assay

Activity | SMILES
Active | Cc1c2cc(NC(=O)NCCCCCCNC(=O)Nc3ccc4c(c3)c(C)[n+](C)c3ccccc43)ccc2c2ccccc2[n+]1C.O=S(=O)([O-])O.O=S(=O)([O-])O

The compounds below were run on Nucleic Acid (assay: Binding affinity to poly A-poly U RNA at compound to DNA molar ratio of 0.1 to 0.5 at pH 7 by circular dichroism). Conditions: not given.
Format: nucleic-acid assay

Activity | SMILES
Active | Cc1c2cc(NC(=O)NCCCCCCNC(=O)Nc3ccc4c(c3)c(C)[n+](C)c3ccccc43)ccc2c2ccccc2[n+]1C.O=S(=O)([O-])O.O=S(=O)([O-])O

Each compound was assayed on MIA PaCa-2 (assay: Cytotoxicity against human MIAPaCa2 cells at 100 uM after 72 hrs by MTT assay). Conditions: MIA PaCa-2, 72 h.
Format: functional

SMILES | inhibition at 100 µM
Cc1c2cc(NC(=O)NCCCCCCNC(=O)Nc3ccc4c(c3)c(C)[n+](C)c3ccccc43)ccc2c2ccccc2[n+]1C.O=S(=O)([O-])O.O=S(=O)([O-])O | 43.1%

What follows are compounds tested on HEp-2 (assay: Cytotoxicity against human Hep2 cells at 0.1 to 100 uM after 72 hrs by MTT assay). Conditions: not given.
Format: functional, cell-based

SMILES | Activity
Cc1c2cc(NC(=O)NCCCCCCNC(=O)Nc3ccc4c(c3)c(C)[n+](C)c3ccccc43)ccc2c2ccccc2[n+]1C.O=S(=O)([O-])O.O=S(=O)([O-])O | Active

These compounds were tested on HeLa (assay: Cytotoxicity against human HeLa cells at 0.1 to 100 uM after 72 hrs by MTT assay). Conditions: not given.
Format: functional, cell-based

SMILES | Activity
Cc1c2cc(NC(=O)NCCCCCCNC(=O)Nc3ccc4c(c3)c(C)[n+](C)c3ccccc43)ccc2c2ccccc2[n+]1C.O=S(=O)([O-])O.O=S(=O)([O-])O | Active

The compounds below were run on Nucleic Acid (assay: Binding affinity to AMP in citric acid buffer at pH 5 by fluorescence titration assay relative to control). Conditions: not given.
Format: nucleic-acid assay

RFU | SMILES
3.8 | Cc1c2cc(NC(=O)NCCCCCCNC(=O)Nc3ccc4c(c3)c(C)[n+](C)c3ccccc43)ccc2c2ccccc2[n+]1C.O=S(=O)([O-])O.O=S(=O)([O-])O

These compounds were tested on Nucleic Acid (assay: Binding affinity to GMP in citric acid buffer at pH 5 by fluorescence titration assay relative to control). Conditions: not given.
Format: nucleic-acid assay

RFU | SMILES
31.6 | Cc1c2cc(NC(=O)NCCCCCCNC(=O)Nc3ccc4c(c3)c(C)[n+](C)c3ccccc43)ccc2c2ccccc2[n+]1C.O=S(=O)([O-])O.O=S(=O)([O-])O

These compounds were tested on Nucleic Acid (assay: Binding affinity to CMP in citric acid buffer at pH 5 by fluorescence titration assay relative to control). Conditions: not given.
Format: nucleic-acid assay

RFU | SMILES
-15.3 | Cc1c2cc(NC(=O)NCCCCCCNC(=O)Nc3ccc4c(c3)c(C)[n+](C)c3ccccc43)ccc2c2ccccc2[n+]1C.O=S(=O)([O-])O.O=S(=O)([O-])O

The compounds below were run on Nucleic Acid (assay: Binding affinity to UMP in citric acid buffer at pH 5 by fluorescence titration assay relative to control). Conditions: not given.
Format: nucleic-acid assay

RFU | SMILES
-11.5 | Cc1c2cc(NC(=O)NCCCCCCNC(=O)Nc3ccc4c(c3)c(C)[n+](C)c3ccccc43)ccc2c2ccccc2[n+]1C.O=S(=O)([O-])O.O=S(=O)([O-])O

What follows are compounds tested on Nucleic Acid (assay: Binding affinity to AMP in sodium cacodylate buffer at pH 7 by fluorescence titration assay relative to control). Conditions: not given.
Format: nucleic-acid assay

RFU | SMILES
-47.8 | Cc1c2cc(NC(=O)NCCCCCCNC(=O)Nc3ccc4c(c3)c(C)[n+](C)c3ccccc43)ccc2c2ccccc2[n+]1C.O=S(=O)([O-])O.O=S(=O)([O-])O

These compounds were tested on Nucleic Acid (assay: Binding affinity to GMP in sodium cacodylate buffer at pH 7 by fluorescence titration assay relative to control). Conditions: not given.
Format: nucleic-acid assay

RFU | SMILES
6.3 | Cc1c2cc(NC(=O)NCCCCCCNC(=O)Nc3ccc4c(c3)c(C)[n+](C)c3ccccc43)ccc2c2ccccc2[n+]1C.O=S(=O)([O-])O.O=S(=O)([O-])O

These compounds were tested on Nucleic Acid (assay: Binding affinity to CMP in sodium cacodylate buffer at pH 7 by fluorescence titration assay relative to control). Conditions: not given.
Format: nucleic-acid assay

RFU | SMILES
3.5 | Cc1c2cc(NC(=O)NCCCCCCNC(=O)Nc3ccc4c(c3)c(C)[n+](C)c3ccccc43)ccc2c2ccccc2[n+]1C.O=S(=O)([O-])O.O=S(=O)([O-])O

These compounds were tested on Calf thymus DNA (assay: Binding affinity to calf thymus DNA assessed as melting temperature at compound to DNA molar ratio of 0.2 at pH 5 by thermal denaturation assay). Conditions: Bos taurus.
Format: nucleic-acid assay

Tm | SMILES
74.6 °C | Cc1c2cc(NC(=O)NCCCCCCNC(=O)Nc3ccc4c(c3)c(C)[n+](C)c3ccccc43)ccc2c2ccccc2[n+]1C.O=S(=O)([O-])O.O=S(=O)([O-])O

Each compound was assayed on Calf thymus DNA (assay: Binding affinity to calf thymus DNA assessed as melting temperature at compound to DNA molar ratio of 0.3 at pH 5 by thermal denaturation assay). Conditions: Bos taurus.
Format: nucleic-acid assay

Tm | SMILES
76.3 °C | Cc1c2cc(NC(=O)NCCCCCCNC(=O)Nc3ccc4c(c3)c(C)[n+](C)c3ccccc43)ccc2c2ccccc2[n+]1C.O=S(=O)([O-])O.O=S(=O)([O-])O

Each compound was assayed on Nucleic Acid (assay: Binding affinity to […] assessed as melting temperature at compound to DNA molar ratio of 0.3 at pH 5 by thermal denaturation assay). Conditions: not given.
Format: nucleic-acid assay

Tm | SMILES
60.4 °C | Cc1c2cc(NC(=O)NCCCCCCNC(=O)Nc3ccc4c(c3)c(C)[n+](C)c3ccccc43)ccc2c2ccccc2[n+]1C.O=S(=O)([O-])O.O=S(=O)([O-])O

What follows are compounds tested on Calf thymus DNA (assay: Binding affinity to calf thymus DNA assessed as melting temperature at compound to DNA molar ratio of 0.3 at pH 7 by thermal denaturation assay). Conditions: Bos taurus.
Format: nucleic-acid assay

Tm | SMILES
84.8 °C | Cc1c2cc(NC(=O)NCCCCCCNC(=O)Nc3ccc4c(c3)c(C)[n+](C)c3ccccc43)ccc2c2ccccc2[n+]1C.O=S(=O)([O-])O.O=S(=O)([O-])O

What follows are compounds tested on Nucleic Acid (assay: Binding affinity to […] assessed as melting temperature at compound to DNA molar ratio of 0.2 at pH 7 by thermal denaturation assay). Conditions: not given.
Format: nucleic-acid assay

Tm | SMILES
70.1 °C | Cc1c2cc(NC(=O)NCCCCCCNC(=O)Nc3ccc4c(c3)c(C)[n+](C)c3ccccc43)ccc2c2ccccc2[n+]1C.O=S(=O)([O-])O.O=S(=O)([O-])O

The compounds below were run on Nucleic Acid (assay: Binding affinity to […] assessed as melting temperature at compound to DNA molar ratio of 0.3 at pH 7 by thermal denaturation assay). Conditions: not given.
Format: nucleic-acid assay

Tm | SMILES
71.3 °C | Cc1c2cc(NC(=O)NCCCCCCNC(=O)Nc3ccc4c(c3)c(C)[n+](C)c3ccccc43)ccc2c2ccccc2[n+]1C.O=S(=O)([O-])O.O=S(=O)([O-])O

The compounds below were run on Nucleic Acid (assay: Binding affinity to poly A-poly U RNA assessed as melting temperature at compound to DNA molar ratio of 0.2 at pH 7 by thermal denaturation assay). Conditions: not given.
Format: nucleic-acid assay

Tm | SMILES
51.5 °C | Cc1c2cc(NC(=O)NCCCCCCNC(=O)Nc3ccc4c(c3)c(C)[n+](C)c3ccccc43)ccc2c2ccccc2[n+]1C.O=S(=O)([O-])O.O=S(=O)([O-])O

What follows are compounds tested on Nucleic Acid (assay: Binding affinity to poly A-poly U RNA assessed as biphasic transitions of change in melting temperature at compound to DNA molar ratio of 0.2 at pH 5 by thermal denaturation assay). Conditions: not given.
Format: nucleic-acid assay

ΔTm | SMILES
-1.2 °C | Cc1c2cc(NC(=O)NCCCCCCNC(=O)Nc3ccc4c(c3)c(C)[n+](C)c3ccccc43)ccc2c2ccccc2[n+]1C.O=S(=O)([O-])O.O=S(=O)([O-])O

Each compound was assayed on Nucleic Acid (assay: Binding affinity to poly A-poly U RNA assessed as biphasic transitions of melting temperature at compound to DNA molar ratio of 0.2 at pH 5 by thermal denaturation assay). Conditions: not given.
Format: nucleic-acid assay

Tm | SMILES
31.4 °C | Cc1c2cc(NC(=O)NCCCCCCNC(=O)Nc3ccc4c(c3)c(C)[n+](C)c3ccccc43)ccc2c2ccccc2[n+]1C.O=S(=O)([O-])O.O=S(=O)([O-])O
